Data reported in US12060352B2, “Substituted pyrrolo[2,3-d]pyrimidines having ectonucleotide pyrophosphatase-phosphodiesterase inhibitory activity” (KOREA INSTITUTE OF SCIENCE AND TECHNOLOGY, priority 2021, dated 2024).
Structures can show the parent of a compound that is named as a salt.

molecular target: T1, human recombinant ENPP1 (Homo sapiens, UniProt P22413); test: ENPP1 enzyme assay with cGAMP substrate (AMP-Glo); type: biochemical; conditions: human recombinant ENPP1 3 ng per reaction, cGAMP 5 μM, 37° C., 90 minutes, AMP-Glo luminescence
T1 construct: purchased R&D Systems
T1 sequence (P22413 1-925): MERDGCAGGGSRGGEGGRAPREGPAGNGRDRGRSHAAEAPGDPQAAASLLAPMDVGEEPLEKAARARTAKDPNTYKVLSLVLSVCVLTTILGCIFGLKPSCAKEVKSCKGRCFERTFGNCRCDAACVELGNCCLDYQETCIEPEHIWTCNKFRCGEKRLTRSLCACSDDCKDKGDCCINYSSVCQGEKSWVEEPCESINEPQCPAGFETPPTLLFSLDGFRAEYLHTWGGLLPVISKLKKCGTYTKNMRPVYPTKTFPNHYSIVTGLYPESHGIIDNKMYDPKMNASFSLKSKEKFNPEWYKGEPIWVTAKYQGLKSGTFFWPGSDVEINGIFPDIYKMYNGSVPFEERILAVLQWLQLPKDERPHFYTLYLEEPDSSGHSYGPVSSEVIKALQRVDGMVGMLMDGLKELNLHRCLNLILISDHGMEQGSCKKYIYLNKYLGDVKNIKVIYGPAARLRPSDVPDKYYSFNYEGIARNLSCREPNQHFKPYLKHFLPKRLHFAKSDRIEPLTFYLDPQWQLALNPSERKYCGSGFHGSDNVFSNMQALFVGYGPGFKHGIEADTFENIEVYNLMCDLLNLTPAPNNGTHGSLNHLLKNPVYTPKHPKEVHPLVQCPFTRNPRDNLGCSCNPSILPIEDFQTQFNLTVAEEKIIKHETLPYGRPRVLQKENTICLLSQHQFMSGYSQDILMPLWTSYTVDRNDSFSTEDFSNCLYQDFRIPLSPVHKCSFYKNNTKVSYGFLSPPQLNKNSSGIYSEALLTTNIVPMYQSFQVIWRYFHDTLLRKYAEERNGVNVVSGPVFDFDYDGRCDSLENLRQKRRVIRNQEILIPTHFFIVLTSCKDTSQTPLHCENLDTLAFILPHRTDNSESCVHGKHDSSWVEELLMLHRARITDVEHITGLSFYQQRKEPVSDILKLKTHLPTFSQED
Description: ENPP1 hydrolyzes nucleotides or nucleotide derivatives to yield nucleoside-5′-monophosphate and pyrophosphate. In addition, ENPP1 hydrolyzes 2′,3′-cGAMP to yield 5′-adenosine monophosphate (AMP) and 5′-guanosine monophosphate (GMP). AMP obtained through the above reaction was measured using an AMP-Glo® kit (Promega). The AMP-Glo® kit includes two reagents. The first reagent terminates the AMP-producing enzyme reaction, removes ATP, and converts the produced AMP into ADP. The second reagent converts ADP into ATP, the ATP being used to generate luminescence in the luciferase reaction. The amount of luminescence measured as described above is proportional to the amount of AMP produced by ENPP1.
The final reaction mixture for an assay system contains 50 mM Tris (pH 8.5) buffer, 250 mM NaCl, 0.5 mM CaCl2, 1 μM ZnCl2, 5% glycerol, and 1% DMSO. […] The reaction was initiated by addition of cGAMP (at a final concentration of 5 μM) and carried out at 37° C. for 90 minutes. At the end of the reaction, 10 μl of AMP-Glo first reagent was added to stop the reaction, and then the reaction mixture was stored at room temperature for 1 hour. After storage, the mixture was added with 20 μl of an AMP detection solution (a mixture of AMP-Glo II reagent and Kinase-Glo at a ratio of 1:100) and stored at room temperature for 1 hour. Luminescence signals were measured using a Victor® plate reader (Perkin Elmer). The maximal activity control (containing an enzyme and a substrate in the presence of 1% DMSO; MAX) and the minimal activity control (containing a substrate and 1% DMSO; MIN) were evaluated simultaneously. In each experiment, serially diluted reference ENPP1 inhibitors were tested together. IC50 values for % residual activity versus compound concentration were determined by fitting inhibition curves using a 3-parameter variable slope in GraphPad Prism® software.

IC50 | SMILES
> 10000 nM | CC(C)(C)OC(=O)NS(=O)(=O)NCc1ccc(-c2ccnc3[nH]ccc23)cc1 [Example 17, tert-butyl (N-(4-(1H-pyrrolo[2,3-b]pyridin-4-yl)benzyl)sulfamoyl)carbamate]
< 1000 nM | NS(=O)(=O)NCC1CCN(c2ncnc3c2ccn3-c2ccccc2)CC1 [Example 45, N-((1-(7-phenyl-7H-pyrrolo[2,3-d]pyrimidin-4-yl)piperidin-4-yl)methyl)sulfamide]
< 1000 nM | CC(C)(NS(N)(=O)=O)c1ccc(-c2ncnc3[nH]ccc23)cc1 [Example 26, N-(2-(4-(7H-pyrrolo[2,3-d]pyrimidin-4-yl)phenyl)propan-2-yl)sulfamide hydrochloride]
< 1000 nM | Cc1c[nH]c2ncnc(N3CCC(CNS(N)(=O)=O)CC3)c12 [Example 78, N-((1-(5-methyl-7H-pyrrolo[2,3-d]pyrimidin-4-yl)piperidin-4-yl)methyl)sulfamide hydrochloride]
> 10000 nM | CC(C)(N)c1ccc(-c2ncnc3[nH]ccc23)cc1 [Example 12, 2-(4-(7H-pyrrolo[2,3-d]pyrimidin-4-yl)phenyl)propan-2-amine hydrochloride]
1000 to 10000 nM | NS(=O)(=O)NC1CCN(c2ncnc3[nH]ccc23)CC1 [Example 79, N-(1-(7H-pyrrolo[2,3-d]pyrimidin-4-yl)piperidin-4-yl)sulfamide hydrochloride]
< 1000 nM | NS(=O)(=O)NCCC1CCN(c2ncnc3[nH]ccc23)CC1 [Example 54, N-(2-(1-(7H-pyrrolo[2,3-d]pyrimidin-4-yl)piperidin-4-yl)ethyl)sulfamide]
< 1000 nM | NS(=O)(=O)NCC1CCN(c2ncnc3c2ccn3C2CC2)CC1 [Example 46, N-((1-(7-cyclopropyl-7H-pyrrolo[2,3-d]pyrimidin-4-yl)piperidin-4-yl)methyl)sulfamide]
< 1000 nM | NS(=O)(=O)N1CCC2(CCN(c3ncnc4[nH]ccc34)CC2)C1 [Example 80, 8-(7H-pyrrolo[2,3-d]pyrimidin-4-yl)-2,8-diazaspiro[4.5]decane-2-sulfamide hydrochloride]
> 10000 nM | Cc1c[nH]c2ncnc(N3CCC(CN)CC3)c12 [Example 63, (1-(5-methyl-7H-pyrrolo[2,3-d]pyrimidin-4-yl)piperidin-4-yl)methenamine hydrochloride]
< 1000 nM | Cc1cc2c(N3CCC(CNS(N)(=O)=O)CC3)ncnc2[nH]1 [Example 51, N-((1-(6-methyl-7H-pyrrolo[2,3-d]pyrimidin-4-yl)piperidin-4-yl)methyl)sulfamide]
1000 to 10000 nM | NS(=O)(=O)NCc1ccc(-c2ncnc3[nH]ccc23)cc1 [Example 25, N-(4-(7H-pyrrolo[2,3-d]pyrimidin-4-yl)benzyl)sulfamide hydrochloride]
> 10000 nM | CC(C)n1ccc2c(N3CCC(CNS(N)(=O)=O)CC3)ncnc21 [Example 47, N-((1-(7-isopropyl-7H-pyrrolo[2,3-d]pyrimidin-4-yl)piperidin-4-yl)methyl)sulfamide]
< 1000 nM | NS(=O)(=O)NCC1CCN(c2ncnc3[nH]ccc23)CC1 [Example 43, N-((1-(7H-pyrrolo[2,3-d]pyrimidin-4-yl)piperidin-4-yl)methyl)sulfamide]
1000 to 10000 nM | NS(=O)(=O)NCc1ccc(-c2ncnc3[nH]ccc23)cc1F [Example 30, N-(2-fluoro-4-(7H-pyrrolo[2,3-d]pyrimidin-4-yl)benzyl)sulfamide hydrochloride]
> 10000 nM | CSc1nc(N2CCC(CCNS(N)(=O)=O)CC2)c2cc[nH]c2n1 [Example 53, N-(2-(1-(2-(methylthio)-7H-pyrrolo[2,3-d]pyrimidin-4-yl)piperidin-4-yl)ethyl)sulfamide]
1000 to 10000 nM | NS(=O)(=O)N1CCc2cc(-c3ncnc4[nH]ccc34)ccc2C1 [Example 42, 6-(7H-pyrrolo[2,3-d]pyrimidin-4-yl)-3,4-dihydroisoquinoline-2(1H)-sulfonamide hydrochloride]
> 10000 nM | NCc1ccc(-c2ccnc3[nH]ccc23)cc1 [Example 10, (4-(1H-pyrrolo[2,3-b]pyridin-4-yl)phenyl)methenamine hydrochloride]
1000 to 10000 nM | NS(=O)(=O)NCc1ccc(-c2ccnc3[nH]ccc23)cc1 [Example 24, N-(4-(1H-pyrrolo[2,3-b]pyridin-4-yl)benzyl)sulfamide hydrochloride]
< 1000 nM | CC(NS(N)(=O)=O)c1ccc(-c2ncnc3[nH]ccc23)cc1 (stereo not shown) [Example 27, N-(1-(4-(7H-pyrrolo[2,3-d]pyrimidin-4-yl)phenyl)ethyl)sulfamide hydrochloride]
1000 to 10000 nM | NS(=O)(=O)NCc1cccc(-c2ncnc3[nH]ccc23)c1 [Example 34, N-(3-(7H-pyrrolo[2,3-d]pyrimidin-4-yl)benzyl)sulfamide hydrochloride]
1000 to 10000 nM | NCC1CCN(c2ncnc3[nH]ccc23)CC1 [Example 65, (1-(7H-pyrrolo[2,3-d]pyrimidin-4-yl)piperidin-4-yl)methenamine hydrochloride]
1000 to 10000 nM | O=S(=O)(NCC1CCN(c2ncnc3[nH]ccc23)CC1)c1cccs1 [Example 88, N-((1-(7H-pyrrolo[2,3-d]pyrimidin-4-yl)piperidin-4-yl)methyl)thiophene-2-sulfonamide]
1000 to 10000 nM | NCc1ccc(-c2ncnc3[nH]ccc23)cc1 [Example 11, (4-(7H-pyrrolo[2,3-d]pyrimidin-4-yl)phenyl)methenamine hydrochloride]
< 1000 nM | NS(=O)(=O)NCC1CCN(c2ncnc3c2ccn3-c2ccco2)CC1 [Example 83, N-((1-7-(furan-2-yl)-7H-pyrrolo[2,3-d]pyrimidin-4-yl)piperidin-4-yl)methyl)sulfamide hydrochloride]
> 10000 nM | CC(C)(N)c1ccc(-c2ncnc3c2ccn3-c2cccnc2)cc1 [Example 15, hydrochloride]
1000 to 10000 nM | NCC1CCN(c2ncnc3c2ccn3-c2ccco2)CC1 [Example 69, (1-(7-(furan-2-yl)-7H-pyrrolo[2,3-d]pyrimidin-4-yl)piperidin-4-yl)methenamine hydrochloride]
< 1000 nM | CC(NS(N)(=O)=O)C1CCN(c2ncnc3[nH]ccc23)CC1 (stereo not shown) [Example 82, N-(1-(1-(7H-pyrrolo[2,3-d]pyrimidin-4-yl)piperidin-4-yl)ethyl)sulfamide hydrochloride]
1000 to 10000 nM | NS(=O)(=O)NCC1CCN(c2ncnc3c2ccn3-c2cccnc2)CC1 [Example 84, N-((1-(7-(pyridin-3-yl)-7H-pyrrolo[2,3-d]pyrimidin-4-yl)piperidin-4-yl)methyl)sulfamide hydrochloride]
< 1000 nM | Cn1ccc2c(N3CCC(CNS(N)(=O)=O)CC3)ncnc21 [Example 44, N-((1 (7-methyl-7H-pyrrolo[2,3-d]pyrimidin-4-yl)piperidin-4-yl)methyl)sulfamide]

SMILES | IC50
c1nc(N2CCC3(CCNC3)CC2)c2cc[nH]c2n1 [Example 66, 8-(7H-pyrrolo[2,3-d]pyrimidin-4-yl)-2,8-diazaspiro[4.5]decane hydrochloride] | > 10000 nM
